Results as given in patent US7713971B2, “1,2,4-triazine derivatives, preparation and use thereof in human therapy” (Pierre Fabre Medicament, priority 2005, dated 2010).
Where two headings read alike, the source gives them in different places.

Assays:
human PPARδ = molecular target: T1, human PPARδ (Homo sapiens, UniProt Q03181); test: Reporter gene transactivation, hPPAR-GAL4 delta; format: cell-based; conditions: transfected Cos-7 cells, Gal-4 luciferase reporter, 24 hours treatment
T1 construct: expressed in transfected cells; host or cells: Cos-7 cells (ATCC, CRL-1651)
T1 sequence (Q03181 211-439 limits assumed): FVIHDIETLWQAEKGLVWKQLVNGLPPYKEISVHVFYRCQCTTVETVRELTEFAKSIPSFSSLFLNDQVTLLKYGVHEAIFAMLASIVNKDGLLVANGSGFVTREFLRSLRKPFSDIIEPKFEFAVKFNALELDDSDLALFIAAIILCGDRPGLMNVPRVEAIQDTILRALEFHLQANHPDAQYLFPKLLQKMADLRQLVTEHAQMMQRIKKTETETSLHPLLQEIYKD

human PPARγ = molecular target: T2, human PPARγ (Homo sapiens, UniProt P37231); test: Reporter gene transactivation, hPPAR-GAL4 gamma; format: cell-based; conditions: transfected Cos-7 cells, Gal-4 luciferase reporter, 24 hours treatment
T2 construct: expressed in transfected cells; host or cells: Cos-7 cells (ATCC, CRL-1651)
T2 sequence (P37231 238-503 limits assumed): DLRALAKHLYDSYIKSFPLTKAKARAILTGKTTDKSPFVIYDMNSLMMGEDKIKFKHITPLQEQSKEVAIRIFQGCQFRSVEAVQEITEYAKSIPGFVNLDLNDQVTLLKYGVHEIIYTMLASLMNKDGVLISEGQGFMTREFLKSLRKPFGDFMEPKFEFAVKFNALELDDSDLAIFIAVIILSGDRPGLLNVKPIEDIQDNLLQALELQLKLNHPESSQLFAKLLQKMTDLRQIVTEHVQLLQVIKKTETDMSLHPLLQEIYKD

human PPARα = molecular target: T3, human PPARα (Homo sapiens, UniProt Q07869); test: Reporter gene transactivation, hPPAR-GAL4 alpha; format: cell-based; conditions: transfected Cos-7 cells, Gal-4 luciferase reporter, 24 hours treatment
T3 construct: expressed in transfected cells; host or cells: Cos-7 cells (ATCC, CRL-1651)
T3 sequence (Q07869 239-466 limits assumed): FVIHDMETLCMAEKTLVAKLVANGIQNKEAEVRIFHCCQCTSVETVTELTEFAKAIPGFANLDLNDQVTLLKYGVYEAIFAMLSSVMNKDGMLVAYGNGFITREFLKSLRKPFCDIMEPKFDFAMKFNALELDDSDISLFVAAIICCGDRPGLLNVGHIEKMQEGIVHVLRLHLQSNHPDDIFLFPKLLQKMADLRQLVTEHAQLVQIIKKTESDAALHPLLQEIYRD

[1] = system: insulin-resistant male rat (Ico: ZUCKER-fa/fa); test: Normalization of metabolic parameters (cholesterol, plasma triglycerides) in insulin-resistant rat; format: in vivo; conditions: oral route, once per day for four days, Zucker fa/fa rat unfed 16-18 hours
Method: Normalization of metabolic parameters (cholesterol, plasma triglycerides) in an insulin-resistant male rat (Ico: ZUCKER-fa/fa), unfed for 16-18 hours, after treatment by oral route, once per day for four days, with the compounds to be evaluated or their administration vehicle.
These metabolic parameters are measured by spectrophotometry at the beginning and the end of each animal's treatment.

[2] = 96 h, at 10 mg/kg, read-out: Plasma cholesterol
[3] = 96 h, at 10 mg/kg, read-out: Plasma triglycerides

In the case of `CCCCCCCn1c(=O)c(OCCCCc2ccc(OC(C)(C)C(=O)OCC)cc2)nn(CCCC(F)(F)F)c1=O` [Example 31, Ethyl 2-(4-{4-[4-heptyl-3,5-dioxo-2-(4,4,4-trifluoro-butyl)-2,3,4,5-tetrahydro-[1,2,4]triazin-6-yloxy]-butyl}-phenoxy)-2-methyl-propionate], the EC50 (human PPARδ) is reported as 3 to 10 µM, the EC50 (human PPARγ) is reported as ~1 µM and the EC50 (human PPARα) is reported as ~0.1 µM.

For `CCOC(=O)C(C)(C)Oc1cccc(CCCNc2nn(CCCC(F)(F)F)c(=O)n(CCCC(F)(F)F)c2=O)c1` [Example 66, Ethyl 2-(3-{3-[3,5-dioxo-2,4-bis-(4,4,4-trifluoro-butyl)-2,3,4,5-tetrahydro-[1,2,4]triazin-6-ylamino]-propyl}-phenoxy)-2-methyl-propionate], the EC50 (human PPARδ) was ~10 µM, the change in vivo at 10 mg/kg [1, 2] was -9% and the Plasma triglycerides ([1]; at 10 mg/kg) was “inactive at 10”. The EC50 (human PPARγ) was > 10 µM and the EC50 (human PPARα) was 0.03 to 0.1 µM.

In the case of `CCCCCCCn1c(=O)c(NCCc2ccc(SC(C)(C)C(=O)OCC)cc2)nn(C)c1=O` [Example 122, Ethyl 2-{4-[2-(4-heptyl-2-methyl-3,5-dioxo-2,3,4,5-tetrahydro-[1,2,4]triazin-6-ylamino)-ethyl]-phenylsulfanyl}-2-methyl-propionate], the EC50 (human PPARδ) is reported as > 10 µM, the change in vivo at 10 mg/kg [1, 2] is reported as -22% and the change in vivo at 10 mg/kg [1, 3] is reported as -35%. The EC50 (human PPARα) was ~0.3 µM.

In the case of `CCCCCCCn1nc(NCCOc2ccc(OC(C)(C)C(=O)OCC)cc2)c(=O)n(CCCCCCC)c1=O` [Example 42, Ethyl 2-{4-[2-(2,4-diheptyl-3,5-dioxo-2,3,4,5-tetrahydro-[1,2,4]triazin-6-ylamino)-ethoxy]-phenoxy}-2-methyl-propionate], the EC50 (human PPARδ) is reported as 1 to 3 µM, the EC50 (human PPARγ) is reported as > 10 µM and the EC50 (human PPARα) is reported as ~1 µM.

In the case of `CC(C)(Oc1ccc(C(=O)c2ccc(Cl)cc2)cc1)C(=O)O` [Fenofibric acid, reference compound], the EC50 (human PPARδ) is reported as > 100 µM and the EC50 (human PPARα) is reported as 16.9 µM.

In the case of `CCOC(=O)C(C)(C)Oc1ccc(CCNc2nn(COCc3ccccc3)c(=O)n(COCc3ccccc3)c2=O)cc1` [Example 110, Ethyl 2-{4-[2-(2,4-bis-benzyloxymethyl-3,5-dioxo-2,3,4,5-tetrahydro-[1,2,4]triazin-6-ylamino)ethyl]-phenoxy}-2-methyl-propionate], the EC50 (human PPARδ) is reported as > 10 µM and the EC50 (human PPARα) is reported as 1 to 3 µM.

With `CCOC(=O)C(C)(C)Oc1cccc(CCCCNc2nn(CCCC(F)(F)F)c(=O)n(CCCC(F)(F)F)c2=O)c1` [Example 80, Ethyl 2-(3-{4-[3,5-dioxo-2,4-bis-(4,4,4-trifluoro-butyl)-2,3,4,5-tetrahydro-[1,2,4]triazin-6-ylamino]-butyl}-phenoxy)-2-methyl-propionate] the EC50 (human PPARδ) was > 10 µM, the change in vivo at 10 mg/kg [1, 2] was -16% and the Plasma triglycerides ([1]; at 10 mg/kg) was “inactive at 10”. The EC50 (human PPARγ) was 0.3 to 1 µM and the EC50 (human PPARα) was 0.01 to 0.03 µM.

With `CCCCn1c(=O)c(OCCCCCc2cccc(OC(C)(C)C(=O)OCC)c2)nn(CCCC(F)(F)F)c1=O` [Example 14, Ethyl 2-(3-{5-[4-Butyl-3,5-dioxo-2-(4,4,4-trifluoro-butyl)-2,3,4,5-tetrahydro-[1,2,4]triazin-6-yloxy]-pentyl}-phenoxy)-2-methyl-propionate] the EC50 (human PPARδ) was ~10 µM, the EC50 (human PPARγ) was ~1 µM and the EC50 (human PPARα) was 0.01 to 0.03 µM.

`CCCCCCCn1nc(NCCc2ccc(OC(C)(C)C(=O)OCC)cc2)c(=O)n(Cc2ccccc2)c1=O` [Example 109, Ethyl 2-{4-[2-(4 benzyl-2-heptyl-3,5-dioxo-2,3,4,5-tetrahydro-[1,2,4]triazin-6-ylamino)-ethyl]-phenoxy}-2-methyl-propionate] gave an EC50 (human PPARδ) of 3 to 10 µM and an EC50 (human PPARα) of ~1 µM.

With `CCCCCCCN(CCc1ccc(OC(C)(C)C(=O)OCC)cc1)c1nn(C)c(=O)n(C)c1=O` [Example 112, Ethyl 2-(4-{2-[(2,4-dimethyl-3,5-dioxo-2,3,4,5-tetrahydro-[1,2,4]triazin-6-yl)-heptyl-amino]-ethyl}-phenoxy)-2-methyl-propionate] the EC50 (human PPARδ) was 1 to 3 µM, the change in vivo at 10 mg/kg [1, 2] was -43% and the change in vivo at 10 mg/kg [1, 3] was -31%. It also gave an EC50 (human PPARγ) of ~10 µM and an EC50 (human PPARα) of 1 to 3 µM.

`CCCCCCCn1nc(OCCCCc2ccc(OC(C)(C)C(=O)OCC)cc2)c(=O)n(C)c1=O` [Example 29, Ethyl 2-{4-[4-(2-heptyl-4-methyl-3,5-dioxo-2,3,4,5-tetrahydro-[1,2,4]triazin-6-yloxy)-butyl]-phenoxy}-2-methyl-propionate] was tested, and the EC50 (human PPARδ) was 3 to 10 µM, the EC50 (human PPARγ) was 3 to 10 µM and the EC50 (human PPARα) was 3 to 10 µM.

`CCCCCCCn1nc(OCCCc2ccc(OC(C)(C)C(=O)OCC)cc2)c(=O)n(C)c1=O` [Example 27, Ethyl 2-{4-[3-(2-heptyl-4-methyl-3,5-dioxo-2,3,4,5-tetrahydro-[1,2,4]triazin-6-yloxy)-propyl]-phenoxy}-2-methyl-propionate] was tested, and the EC50 (human PPARδ) was 3 to 10 µM, the EC50 (human PPARγ) was 3 to 10 µM and the EC50 (human PPARα) was ~3 µM.

For `CCOC(=O)C(C)(C)Oc1ccc(CCN(CCCc2ccccc2)c2nn(C)c(=O)n(C)c2=O)cc1` [Example 115, Ethyl 2-(4-{2-[(2,4-dimethyl-3,5-dioxo-2,3,4,5-tetrahydro-[1,2,4]triazin-6-yl)-(3-phenylpropyl)-amino]-ethyl}-phenoxy)-2-methyl-propionate], the EC50 (human PPARδ) was > 10 µM and the EC50 (human PPARα) was ~3 µM.

`CCCCCCCn1nc(NCCOc2ccc(OC(C)(C)C(=O)OCC)cc2)c(=O)n(C)c1=O` [Example 40, Ethyl 2-{4-[2-(2-heptyl-4-methyl-3,5-dioxo-2,3,4,5-tetrahydro-[1,2,4]triazin-6-ylamino)-ethoxy]-phenoxy}-2-methyl-propionate] was tested, and the EC50 (human PPARδ) was > 10 µM, the EC50 (human PPARγ) was ~10 µM and the EC50 (human PPARα) was 3 to 10 µM.

`CCCCCCCn1c(=O)c(NCCCOc2ccc(OC(C)(C)C(=O)OCC)cc2)nn(CCCC(F)(F)F)c1=O` [Example 48, Ethyl 2-(4-{3-[4-heptyl-3,5-dioxo-2-(4,4,4-trifluoro-butyl)-2,3,4,5-tetrahydro-[1,2,4]triazin-6-ylamino]-propoxy}-phenoxy)-2-methyl-propionate] was tested, and the EC50 (human PPARδ) was ~3 µM, the EC50 (human PPARγ) was 0.3 to 1 µM and the EC50 (human PPARα) was 0.3 to 1 µM.

`CCOC(=O)C(C)(C)Oc1ccc(OCCCOc2nn(CCCC(F)(F)F)c(=O)n(CCCC(F)(F)F)c2=O)cc1` [Example 39, Ethyl 2-(4-{3-[3,5-dioxo-2,4-bis-(4,4,4-trifluoro-butyl)-2,3,4,5-tetrahydro-[1,2,4]triazin-6-yloxy]-propoxy}-phenoxy)-2-methyl-propionate] showed an EC50 (human PPARδ) of ~3 µM, an EC50 (human PPARγ) of 3 to 10 µM and an EC50 (human PPARα) of 0.1 to 0.3 µM.

For `CCCCn1nc(OCCCCCc2cccc(OC(C)(C)C(=O)OCC)c2)c(=O)n(CCCC)c1=O` [Example 13, Ethyl 2-{3-[5-(2,4-dibutyl-3,5-dioxo-2,3,4,5-tetrahydro-[1,2,4]triazin-6-yloxy)-pentyl]-phenoxy}-2-methyl-propionate], the EC50 (human PPARδ) was ~3 µM, the change in vivo at 2.5 mg/kg ([1]; 96 h, at 2.5 mg/kg, read-out: Plasma cholesterol) was -8% and the change in vivo at 10 mg/kg [1, 2] was -12%. The change in vivo at 10 mg/kg [1, 3] was -28%, the Plasma triglycerides ([1]; at 2.5 mg/kg) was “inactive at 2.5” and the EC50 (human PPARγ) was 0.1 to 0.3 µM. The EC50 (human PPARα) was 0.01 to 0.03 µM.

With `CCCCCCCn1c(=O)c(NCCCCc2cccc(OC(C)(C)C(=O)OCC)c2)nn(Cc2ccccc2)c1=O` [Example 89, Ethyl 2-{3-[4-(2-benzyl-4-heptyl-3,5-dioxo-2,3,4,5-tetrahydro-[1,2,4]triazin-6-ylamino)-butyl]-phenoxy}-2-methyl-propionate] the EC50 (human PPARδ) was 3 to 10 µM, the EC50 (human PPARγ) was 1 to 3 µM and the EC50 (human PPARα) was > 10 µM.

Work on `CCOC(=O)C(C)(C)Oc1cccc(OCCCOc2nn(CCCC(F)(F)F)c(=O)n(CCCC(F)(F)F)c2=O)c1` [Example 35, Ethyl 2-(3-{3-[3,5-dioxo-2,4-bis-(4,4,4-trifluoro-butyl)-2,3,4,5-tetrahydro-[1,2,4]triazin-6-yloxy]-propoxy}-phenoxy)-2-methyl-propionate] yielded an EC50 (human PPARδ) of ~10 µM, an EC50 (human PPARγ) of 3 to 10 µM and an EC50 (human PPARα) of 0.03 to 0.1 µM.

With `CCCCCCCn1c(=O)c(NCCc2ccc(OC(C)(C)C(=O)OCC)cc2)nn(C)c1=O` [Example 106, Ethyl 2-{4-[2-(4-heptyl-2-methyl-3,5-dioxo-2,3,4,5-tetrahydro-[1,2,4]triazin-6-ylamino)-ethyl]-phenoxy}-2-methyl-propionate] the EC50 (human PPARδ) was > 10 µM and the EC50 (human PPARα) was ~1 µM.
